Results: patent US20250306032A1, “METHODS FOR IDENTIFYING REACTIVE FUNCTIONAL CYSTEINES IN NUCLEAR PROTEINS” (Talus Bioscience, Inc., priority 2022, published 2025)

Key:
Assay type in all cases: cell-based
CTCF = target: T1, CTCF (Homo sapiens, UniProt P49711); experiment: Movement of transcription factor between ChESS fractions after NM-IAA treatment; details: ChESS fractionation after NM-IAA treatment
T1 construct: endogenous in cells; host or cells: THP-1
T1 sequence (P49711 1-727): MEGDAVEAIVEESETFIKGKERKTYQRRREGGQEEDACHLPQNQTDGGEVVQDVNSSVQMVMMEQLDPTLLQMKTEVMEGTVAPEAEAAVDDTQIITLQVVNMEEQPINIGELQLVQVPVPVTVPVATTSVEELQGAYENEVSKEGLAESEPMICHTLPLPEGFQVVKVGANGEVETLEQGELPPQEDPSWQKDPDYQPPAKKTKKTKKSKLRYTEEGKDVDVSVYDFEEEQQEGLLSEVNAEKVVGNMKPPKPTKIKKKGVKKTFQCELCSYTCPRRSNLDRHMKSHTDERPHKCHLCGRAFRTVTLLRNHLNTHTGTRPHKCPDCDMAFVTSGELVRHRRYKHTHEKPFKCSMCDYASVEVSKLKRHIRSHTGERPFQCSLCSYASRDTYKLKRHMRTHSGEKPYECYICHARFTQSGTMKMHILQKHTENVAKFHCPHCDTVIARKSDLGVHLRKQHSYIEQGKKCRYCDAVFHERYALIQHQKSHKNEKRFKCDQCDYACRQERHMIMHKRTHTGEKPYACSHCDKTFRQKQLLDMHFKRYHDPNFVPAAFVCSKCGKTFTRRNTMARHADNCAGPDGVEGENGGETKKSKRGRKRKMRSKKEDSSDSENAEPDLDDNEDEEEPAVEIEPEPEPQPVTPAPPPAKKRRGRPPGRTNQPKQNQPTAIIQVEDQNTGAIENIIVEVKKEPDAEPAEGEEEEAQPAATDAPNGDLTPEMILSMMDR
Procedure: Five million cells, from leukemia, myeloma, or other cancer cell cultures, were treated with 12.5 μM n-methyl iodoacetamide (NM-IAA) in triplicate for 4 hours. The cells were then washed with phosphate-buffered saline (PBS) and fractionated using chromatin enriching salt separation (ChESS). ChESS used four sequential buffer washes of increasing ionic strength to separate the cellular proteome into cytosolic-, nucleoplasm-, euchromatin-, and heterochromatin-enriched fractions, as outlined in FIG. 1. Each of the fractions was digested using trypsin and analyzed using a data-dependent acquisition (DDA) strategy on an Evosep One-ThermoFisher Exploris 480 orbitrap platform. The results were analyzed using the Comet search tool with the mass of the NM-IAA addition as a variable modification on cysteine residues, then filtered at a 1% false discovery rate with Peptide Prophet or mokapot. DDA results were quantified with FlashLFQ. Each sample was also acquired using a data independent acquisition (DIA) approach on the same mass spectrometer in order to accurately quantify the peptides and proteins in each sample. DIA samples were analyzed using EncyclopeDIA with a spectral library that was generated using the results from DDA analysis and Comet search results or using a predicted spectral library from Prosit. […]

[1] = target: T2, CCCTC-binding factor (CTCF) (Homo sapiens, UniProt P49711); experiment: Reactive cysteine identification by ChESS fractionation and mass spectrometry in THP-1 cells; details: 12.5 μM, 4 hours, mass spectrometry
T2 construct: endogenous in cells; host or cells: THP-1
T2 sequence (P49711 1-727): T1 sequence (P49711 1-727)
Procedure: Five million cells, from leukemia, myeloma, or other cancer cell cultures, were treated with 12.5 μM n-methyl iodoacetamide (NM-IAA) in triplicate for 4 hours. The cells were then washed with phosphate-buffered saline (PBS) and fractionated using chromatin enriching salt separation (ChESS). ChESS used four sequential buffer washes of increasing ionic strength to separate the cellular proteome into cytosolic-, nucleoplasm-, euchromatin-, and heterochromatin-enriched fractions, as outlined in FIG. 1. Each of the fractions was digested using trypsin and analyzed using a data-dependent acquisition (DDA) strategy on an Evosep One-ThermoFisher Exploris 480 orbitrap platform. The results were analyzed using the Comet search tool with the mass of the NM-IAA addition as a variable modification on cysteine residues, then filtered at a 1% false discovery rate with Peptide Prophet or mokapot. DDA results were quantified with FlashLFQ. Each sample was also acquired using a data independent acquisition (DIA) approach on the same mass spectrometer in order to accurately quantify the peptides and proteins in each sample. DIA samples were analyzed using EncyclopeDIA with a spectral library that was generated using the results from DDA analysis and Comet search results or using a predicted spectral library from Prosit.
THP-1 acute monocytic leukemia cells were grown to 95% viability. […]

[2] = target: T3, poly(ADP-ribose) polymerase-1 (PARP1) (Homo sapiens, UniProt P09874); experiment: Reactive cysteine identification with Biotin-IA in THP-1 cells (mass spectrum); details: 10 μM
T3 construct: endogenous in cells; host or cells: THP-1
Procedure: The mass shift associated with NM-IAA is 71.03 Dalton (Da). […] THP-1 cells were treated with 10 μM biotin polyethyleneoxide iodoacetamide (Biotin-IA). Biotin-IA reacted with a cysteine in the peptide SDAYYCTGDVTAWTK (SEQ ID NO: 2) from the poly(ADP-ribose) polymerase-1 (PARP1) protein.

T3 sequence (P09874 whole entry): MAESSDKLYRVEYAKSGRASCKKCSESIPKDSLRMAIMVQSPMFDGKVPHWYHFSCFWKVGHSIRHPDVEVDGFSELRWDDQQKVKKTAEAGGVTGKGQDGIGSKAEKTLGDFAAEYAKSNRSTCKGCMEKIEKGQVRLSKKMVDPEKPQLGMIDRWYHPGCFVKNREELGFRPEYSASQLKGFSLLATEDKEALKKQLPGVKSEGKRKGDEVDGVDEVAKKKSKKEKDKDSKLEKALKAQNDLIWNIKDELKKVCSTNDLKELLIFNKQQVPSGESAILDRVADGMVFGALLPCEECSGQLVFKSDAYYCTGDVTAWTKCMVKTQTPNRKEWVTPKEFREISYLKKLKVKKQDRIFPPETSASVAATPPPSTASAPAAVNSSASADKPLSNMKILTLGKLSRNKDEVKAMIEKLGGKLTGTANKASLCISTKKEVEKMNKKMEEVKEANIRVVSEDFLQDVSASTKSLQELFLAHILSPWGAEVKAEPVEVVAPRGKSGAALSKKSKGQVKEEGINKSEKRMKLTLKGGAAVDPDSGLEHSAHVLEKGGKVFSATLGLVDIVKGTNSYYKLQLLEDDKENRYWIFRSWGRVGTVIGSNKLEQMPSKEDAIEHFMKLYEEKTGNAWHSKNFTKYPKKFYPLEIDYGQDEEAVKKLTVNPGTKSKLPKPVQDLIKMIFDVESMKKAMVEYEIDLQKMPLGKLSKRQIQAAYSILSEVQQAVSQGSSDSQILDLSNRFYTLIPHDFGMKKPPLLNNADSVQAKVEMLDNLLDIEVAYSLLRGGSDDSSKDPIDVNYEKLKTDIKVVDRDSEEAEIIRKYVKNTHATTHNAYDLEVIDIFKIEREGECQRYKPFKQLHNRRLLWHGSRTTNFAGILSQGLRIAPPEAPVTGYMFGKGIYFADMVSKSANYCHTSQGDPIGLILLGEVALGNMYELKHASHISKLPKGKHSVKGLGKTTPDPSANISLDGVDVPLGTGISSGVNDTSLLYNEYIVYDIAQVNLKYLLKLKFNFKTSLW

CNC(=O)CI [NM-IAA, n-methyl iodoacetamide]
CTCF localisation in ChESS fractions after NM-IAA modification (CTCF): ejected from heterochromatin and observed in the nucleoplasm fraction | modification of the cysteine in CTCF peptide YHDPNFVPAAFVCSK (SEQ ID NO: 1) [1]: modified

biotin polyethyleneoxide iodoacetamide [Biotin-IA]
reaction with a cysteine in PARP1 peptide SDAYYCTGDVTAWTK (SEQ ID NO: 2) [2]: reacted
